# How the values were obtained:
# Assay type in all cases: in vivo, human
# patients with COPD [1] = test: Rescue medication use (electronic diary) in 48-week pivotal studies; conditions: for Reduction in daytime rescue bronchodilator use compared to placebo / Reduction in nighttime rescue bronchodilator use compared to placebo: at 48 weeks
# Procedure: Additionally to that rescue medication use was assessed in 48-week pivotal studies using an electronic diary, indicated whether the bronchodilating effects of olodaterol provided sufficient symptomatic benefit to reduce the need for albuterol to control symptoms on a daily and nightly basis.
# patients with COPD [2] = test: Inspiratory capacity (IC) at isotime during exercise (studies 1222.37 and 1222.38); conditions: after 6 weeks
# Description: (§1) Constant work rate cycle ergometry at 75% Wcap was selected as the exercise modality based on previous experience with other bronchodilators. The primary efficacy endpoint was endurance time, while IC at isotime and the intensity of breathing discomfort at isotime were key secondary endpoints. Isotime was defined as the endurance time of the constant work rate exercise test of shortest duration, which ensured that IC and intensity of breathing discomfort were compared across treatments at the same time of exercise for an individual.
# patients with COPD [3] = test: Endurance time during constant work rate cycle ergometry at 75% Wcap (studies 1222.37 and 1222.38); conditions: after 6 weeks
# Description: While, the FDA COPD draft guidance for industry notes that—assessment of exercise capacity by treadmill or cycle ergometry combined with lung volume assessment potentially can be a tool to assess efficacy of a drug (Guidance for industry: chronic obstructive pulmonary disease: developing drugs for treatment (draft guidance, November 2007). Rockville: U.S. Department of Health and Human Services, Food and Drug Administration, Center for Drug Evaluation and Research (CDER) (2007)) two studies (1222.37 & 1222.38) were designed to evaluate the effects of olodaterol on improvement of exercise.
# as §1
# At baseline, the geometric mean exercise endurance time during constant work rate cycle ergometry to symptom limitation at 75% of maximal work capacity was 414 seconds (6 minutes 54 seconds) in study 1222.37 and 374 seconds (6 minutes 14 seconds) in study 1222.38.
# patients with COPD [4] = test: Intensity of breathing discomfort (Borg Scale) at isotime during exercise (studies 1222.37 and 1222.38); conditions: after 6 weeks
# Description: as §1
# [5] = study 1222.37, olodaterol 5 μg, listed as olodaterol
# [6] = study 1222.37, olodaterol 10 μg
# [7] = study 1222.37, olodaterol 10 μg, listed as olodaterol
# [8] = study 1222.38, olodaterol 5 μg, listed as olodaterol
# [9] = study 1222.38, olodaterol 10 μg
# [10] = study 1222.38, olodaterol 10 μg, listed as olodaterol
smiles,measurement,setting,value
COc1ccc(CC(C)(C)NC[C@H](O)c2cc(O)cc3c2OCC(=O)N3)cc1 [Olodaterol],Reduction in daytime rescue bronchodilator use compared to placebo,"patients with COPD [1]; 1222.11/12, 5 μg",−0.455 units
same,Reduction in nighttime rescue bronchodilator use compared to placebo,"patients with COPD [1]; 1222.11/12, 5 μg",−0.497 units
same,Reduction in daytime rescue bronchodilator use compared to placebo,"patients with COPD [1]; 1222.11/12, 10 μg",−0.574 units
same,Reduction in nighttime rescue bronchodilator use compared to placebo,"patients with COPD [1]; 1222.11/12, 10 μg",−0.775 units
same,Reduction in daytime rescue bronchodilator use compared to placebo,"patients with COPD [1]; 1222.13/14, 5 μg",−0.269 units
same,Reduction in nighttime rescue bronchodilator use compared to placebo,"patients with COPD [1]; 1222.13/14, 5 μg",−0.530 units
same,Reduction in daytime rescue bronchodilator use compared to placebo,"patients with COPD [1]; 1222.13/14, 10 μg",−0.337 units
same,Reduction in nighttime rescue bronchodilator use compared to placebo,"patients with COPD [1]; 1222.13/14, 10 μg",−0.617 units
same,Reduction in daytime and nighttime rescue medication use relative to twice-daily formoterol,"patients with COPD [1]; studies 1222.13, 1222.14, once-daily olodaterol",comparable to twice-daily formoterol
same,"Adjusted Mean Inspiratory Capacity at Isotime During Exercise, Treatment mean (SE)","patients with COPD [2]; study 1222.37, olodaterol 5 μg",2.099 (0.038) L
same,"Inspiratory Capacity at Isotime, Mean (SE) compared to placebo","patients with COPD [2]; study 1222.37, olodaterol 5 μg",0.182 (0.036) L
same,"Inspiratory Capacity at Isotime, Mean (SE) compared to placebo",patients with COPD [2]; [5],statistically significant increase
same,"Adjusted Mean Inspiratory Capacity at Isotime During Exercise, Treatment mean (SE)",patients with COPD [2]; [6],2.091 (0.038) L
same,"Inspiratory Capacity at Isotime, Mean (SE) compared to placebo",patients with COPD [2]; [6],0.174 (0.036) L
same,"Inspiratory Capacity at Isotime, Mean (SE) compared to placebo",patients with COPD [2]; [7],statistically significant increase
same,"Adjusted Mean Inspiratory Capacity at Isotime During Exercise, Treatment mean (SE)","patients with COPD [2]; study 1222.38, olodaterol 5 μg",2.246 (0.039) L
same,"Inspiratory Capacity at Isotime, Mean (SE) compared to placebo","patients with COPD [2]; study 1222.38, olodaterol 5 μg",0.084 (0.035) L
same,"Inspiratory Capacity at Isotime, Mean (SE) compared to placebo",patients with COPD [2]; [8],statistically significant increase
same,"Adjusted Mean Inspiratory Capacity at Isotime During Exercise, Treatment mean (SE)",patients with COPD [2]; [9],2.328 (0.039) L
same,"Inspiratory Capacity at Isotime, Mean (SE) compared to placebo",patients with COPD [2]; [9],0.166 (0.034) L
same,"Inspiratory Capacity at Isotime, Mean (SE) compared to placebo",patients with COPD [2]; [10],statistically significant increase
same,"Adjusted Mean Endurance Time, Treatment Mean (SE)","patients with COPD [3]; study 1222.37, olodaterol 5 μg",421.58 (13.459) Seconds
same,Endurance time increase compared with placebo,"patients with COPD [3]; study 1222.37, olodaterol 5 μg",14.0%
same,"Adjusted Mean Endurance Time, Treatment Mean (SE)",patients with COPD [3]; [6],420.72 (13.602) Seconds
same,Endurance time increase compared with placebo,patients with COPD [3]; [6],13.8%
same,"Adjusted Mean Endurance Time, Treatment Mean (SE)","patients with COPD [3]; study 1222.38, olodaterol 5 μg",396.31 (13.680) Seconds
same,Endurance time increase compared with placebo,"patients with COPD [3]; study 1222.38, olodaterol 5 μg",11.8%
same,"Adjusted Mean Endurance Time, Treatment Mean (SE)",patients with COPD [3]; [9],391.45 (13.566) Seconds
same,Endurance time increase compared with placebo,patients with COPD [3]; [9],10.5%
same,"Intensity of Breathing Discomfort at Isotime During Exercise, Treatment mean (SE)","patients with COPD [4]; study 1222.37, olodaterol 5 μg",5.104 (0.182) Borg Scale
same,"Intensity of Breathing Discomfort at Isotime, Difference to placebo Mean (SE)","patients with COPD [4]; study 1222.37, olodaterol 5 μg",−0.766 (0.223) Borg Scale
same,"Intensity of Breathing Discomfort at Isotime, Difference to placebo Mean (SE)",patients with COPD [4]; [5],statistically significant reduction
same,"Intensity of Breathing Discomfort at Isotime During Exercise, Treatment mean (SE)",patients with COPD [4]; [6],5.235 (0.185) Borg Scale
same,"Intensity of Breathing Discomfort at Isotime, Difference to placebo Mean (SE)",patients with COPD [4]; [6],−0.634 (0.225) Borg Scale
same,"Intensity of Breathing Discomfort at Isotime, Difference to placebo Mean (SE)",patients with COPD [4]; [7],statistically significant reduction
same,"Intensity of Breathing Discomfort at Isotime During Exercise, Treatment mean (SE)","patients with COPD [4]; study 1222.38, olodaterol 5 μg",5.250 (0.180) Borg Scale
same,"Intensity of Breathing Discomfort at Isotime, Difference to placebo Mean (SE)","patients with COPD [4]; study 1222.38, olodaterol 5 μg",−0.336 (0.214) Borg Scale
same,"Intensity of Breathing Discomfort at Isotime, Difference to placebo Mean (SE)",patients with COPD [4]; [8],no significant differences
same,"Intensity of Breathing Discomfort at Isotime During Exercise, Treatment mean (SE)",patients with COPD [4]; [9],5.520 (0.181) Borg Scale
same,"Intensity of Breathing Discomfort at Isotime, Difference to placebo Mean (SE)",patients with COPD [4]; [9],−0.066 (0.214) Borg Scale
same,"Intensity of Breathing Discomfort at Isotime, Difference to placebo Mean (SE)",patients with COPD [4]; [10],no significant differences
